Among the data in patent US10329294B2, “Pyrazolopyrimidine inhibitors of IRAK4 activity” (MERCK SHARP & DOHME CORP., priority 2015, dated 2019) are IC50 values, retold here.

Molecules are shown by their SMILES. Structures can show the parent of a compound that is named as a salt. Where two headings read alike, the source gives them in different places.

The IC50 is the concentration needed to halve the response being measured.

The experiment has as its target IRAK4 (Homo sapiens (Human), UniProt Q9NWZ3). In words: IRAK4 Kinase Assay. The class given is biochemical. The settings on record: IMAP fluorescence polarization, 0.5 nM GST tagged IRAK4, 100 μM ATP, 30 minutes at 25° C. (In fluorescence polarisation assays a small probe gives low polarisation when free and higher when bound to something large.)

IRAK4, sequence (Q9NWZ3 whole entry): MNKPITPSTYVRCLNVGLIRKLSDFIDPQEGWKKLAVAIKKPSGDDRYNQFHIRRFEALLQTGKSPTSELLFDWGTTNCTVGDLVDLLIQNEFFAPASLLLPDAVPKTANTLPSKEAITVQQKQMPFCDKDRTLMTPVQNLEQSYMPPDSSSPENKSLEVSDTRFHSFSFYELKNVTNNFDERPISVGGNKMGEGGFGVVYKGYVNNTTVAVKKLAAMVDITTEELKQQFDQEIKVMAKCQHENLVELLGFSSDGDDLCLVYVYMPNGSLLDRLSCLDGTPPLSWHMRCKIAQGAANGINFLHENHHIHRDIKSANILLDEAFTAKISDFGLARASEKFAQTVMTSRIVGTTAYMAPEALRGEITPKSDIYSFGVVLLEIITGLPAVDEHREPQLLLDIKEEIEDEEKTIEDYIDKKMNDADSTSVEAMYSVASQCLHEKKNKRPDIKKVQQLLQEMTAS

Take `N[C@@H]1[C@H](Nc2ccn3ncc(C(=O)Nc4ccccc4C(F)F)c3n2)CCCC1(F)F` [Example 132, 5-{[(1R,2R)-2-amino-3,3-difluorocyclohexyl]amino}-N-[2-(difluoromethyl)phenyl] pyrazolo[1,5-a]pyrimidine-3-carboxamide trifluoroacetate]: for the setting “read-out: IRAK4 IC50”, the IC50 turned out to be 2100 nM.

Regarding `Cn1cc(NC(=O)c2cnn3ccc(N[C@@H]4CCCC[C@@H]4N)nc23)c(CCF)n1` [Example 289, 5-{[(1R,2S)-2-aminocyclohexyl]amino}-N-[3-(2-fluoroethyl)-1-methyl-1H-pyrazol-4-yl]pyrazolo[1,5-a]pyrimidine-3-carboxamide trifluoroacetate], the IC50 (read-out: IRAK4 IC50) is 3 nM.

Consider `O=C(Nc1cscc1C(F)F)c1cnn2ccc(N3CC4CCC3CN4)nc12` (stereo not shown) [Example 135, 5-(2,5-diazabicyclo[2.2.2]oct-2-yl)-N-[4-(difluoromethyl)thiopen-3-yl]pyrazolo[1,5-a]pyrimidine-3-carboxamide trifluoroacetate], for which the IC50 (read-out: IRAK4 IC50) stood at 48 nM.

In the case of `CC(C)n1cc(NC(=O)c2cnn3ccc(N[C@@H]4CCCC[C@@H]4O)nc23)c(C(F)(F)F)n1` [Example 52, 5-{[(1R,2S)-2-hydroxycyclohexyl]amino}-N-[1-(1-methylethyl)-3-(trifluoromethyl)-1H-pyrazol-4-yl]pyrazolo[1,5-a]pyrimidine-3-carboxamide], 64 nM corresponded to half-maximal inhibition (IRAK4 IC50 (nM)) (IC50).

For `Cn1cc(NC(=O)c2cnn3ccc(N4CCCNC5(CC5)C4)nc23)c(C(F)(F)F)n1` [Example 227, 5-(4,8-diazaspiro[2.6]non-8-yl)-N-[1-methyl-3-(trifluoromethyl)-1H-pyrazol-4-yl]pyrazolo[1,5-a]pyrimidine-3-carboxamide], the concentration for half-maximal inhibition (IC50) (read-out: IRAK4 IC50) worked out at 451 nM.

Regarding `Cn1cc(NC(=O)c2cnn3ccc(N[C@H]4CCCCC[C@H]4N)nc23)c(C(F)(F)F)n1` (single isomer, unassigned) [Example 55, 5-{[(1R,2S)- or (1S,2R)-2-aminocycloheptyl]amino}-N-[1-methyl-3-(trifluoromethyl)-1H-pyrazol-4-yl]pyrazolo[1,5-a]pyrimidine-3-carboxamide], the IC50 (read-out: IRAK4 IC50) is 8 nM.

Take `Cn1cc(NC(=O)c2cnn3ccc(N[C@H]4CNCCC4(F)F)nc23)c(C(F)(F)F)n1` (single isomer, unassigned) [Example 245, 5-[(R or S)-(4,4-difluoropiperidin-3-yl)amino]-N-[1-methyl-3-(trifluoromethyl)-1H-pyrazol-4-yl]pyrazolo[1,5-a]pyrimidine-3-carboxamide trifluoroacetate]: the IC50 (read-out: IRAK4 IC50) was 8 nM.

On to `N#Cc1cscc1NC(=O)c1cnn2ccc(N3CC4CCC3CN4)nc12` (stereo not shown) [Example 145, N-(4-cyanothiophen-3-yl)-5-(2,5-diazabicyclo[2.2.2]oct-2-yl)pyrazolo[1,5-a]pyrimidine-3-carboxamide trifluoroacetate], for which, under “read-out: IRAK4 IC50”, the concentration for half-maximal inhibition (IC50) worked out at 165 nM.

`Cn1cc(NC(=O)c2cnn3ccc(N4CCCNCC4)nc23)c(Br)n1` [Example 137, N-(3-bromo-1-methyl-1H-pyrazol-4-yl)-5-(1,4-diazepan-1-yl)pyrazolo[1,5-a]pyrimidine-3-carboxamide trifluoroacetate]: under “read-out: IRAK4 IC50”, the IC50 came out at 72 nM.

On to `CN1CCN(c2ccn3ncc(C(=O)Nc4cn(C)nc4C(F)(F)F)c3n2)CC1` [Example 34, 5-(4-methylpiperazin-1-yl)-N-[1-methyl-3-(trifluoromethyl)-1H-pyrazol-4-yl]pyrazolo[1,5-a]pyrimidine-3-carboxamide], for which, where the note is “read-out: IRAK4 IC50”, the concentration for half-maximal inhibition (IC50) turned out to be 269 nM.

On to `O=C(Nc1ccsc1Br)c1cnn2ccc(N3CCCNCC3)nc12` [Example 127, N-(2-bromothiophen-3-yl)-5-(1,4-diazepan-1-yl)pyrazolo[1,5-a]pyrimidine-3-carboxamide trifluoroacetate], for which, under “read-out: IRAK4 IC50”, the concentration for half-maximal inhibition (IC50) was 419 nM.

Turning to `O=C(Nc1ccccc1I)c1cnn2ccc(N3CC4CCC3CN4)nc12` (stereo not shown) [Example 103, 5-(2,5-diazabicyclo[2.2.2]oct-2-yl)-N-(2-iodophenyl)pyrazolo[1,5-a]pyrimidine-3-carboxamide trifluoroacetate], the concentration for half-maximal inhibition (IC50) (read-out: IRAK4 IC50) stood at 6060 nM.

On to `Cn1cc(NC(=O)c2cnn3ccc(N[C@@H]4CNC[C@@H](F)C4)nc23)c(C(F)(F)F)n1` [Example 255, 5-{[(3S,5S)-5-fluoropiperidin-3-yl]amino}-N-[1-methyl-3-(trifluoromethyl)-1H-pyrazol-4-yl]pyrazolo[1,5-a]pyrimidine-3-carboxamide], for which the IC50 (read-out: IRAK4 IC50) came to 36 nM.

With `N#Cc1sccc1NC(=O)c1cnn2ccc(N[C@@H]3CCCC[C@@H]3O)nc12` [Example 187, N-(2-cyanothiophen-3-yl)-5-{[(1R,2S)-2-hydroxycyclohexyl]amino} pyrazolo[1,5-a]pyrimidine-3-carboxamide], the half-inhibitory concentration (IC50) (read-out: IRAK4 IC50) was found to be 250 nM.

In the case of `Cn1cc(NC(=O)c2cnn3ccc(N4CC5CNCC4C5)nc23)c(C(F)(F)F)n1` (stereo not shown) [Example 82, 5-(3,6-diazabicyclo[3.2.1]oct-6-yl)-N-[1-methyl-3-(trifluoromethyl)-1H-pyrazol-4-yl]pyrazolo[1,5-a]pyrimidine-3-carboxamide trifluoroacetate], the IC50 (read-out: IRAK4 IC50) was found to be 114 nM.

For `Cn1cc(NC(=O)c2cnn3ccc(N4C[C@@H]5CC[C@H]4CN5)nc23)c(C(F)F)n1` (single isomer, unassigned) [Example 158, 5-[(1S,4S)- or (1R,4R)-2,5-diazabicyclo[2.2.2]oct-2-yl]-N-[3-(difluoromethyl)-1-methyl-1H-pyrazol-4-yl]pyrazolo[1,5-a]pyrimidine-3-carboxamide trifluoroacetate], the IC50 (read-out: IRAK4 IC50) amounted to 3 nM.

In the case of `Cn1cc(NC(=O)c2cnn3ccc(N4CCNC(C(F)(F)F)C4)nc23)c(C(F)(F)F)n1` (stereo not shown) [Example 15, N-[1-methyl-3-(trifluoromethyl)-1H-pyrazol-4-yl]-5-(3-(trifluoromethyl)piperazin-1-yl]pyrazolo[1,5-a]pyrimidine-3-carboxamide], the IC50 (read-out: IRAK4 IC50) amounted to 113 nM.

In the case of `Cn1cc(NC(=O)c2cnn3ccc(N[C@@H]4CCCC(F)(F)[C@@H]4N)nc23)c(Cl)n1` [Example 150, 5-{[(1R,2R)-2-amino-3,3-difluorocyclohexyl]amino}-N-(3-chloro-1-methyl-1H-pyrazol-4-yl)pyrazolo[1,5-a]pyrimidine-3-carboxamide], the IC50 (read-out: IRAK4 IC50) amounted to 109 nM.

As for `Cn1cc(NC(=O)c2cnn3ccc(N[C@@H]4CCCC(F)(F)[C@@H]4N)nc23)c(C#N)n1` [Example 126, 5-{[(1R,2R)-2-amino-3,3-difluorocyclohexyl]amino}-N-(3-cyano-1-methyl-1H-pyrazol-4-yl)pyrazolo[1,5-a]pyrimidine-3-carboxamide trifluoroacetate], the concentration for half-maximal inhibition (IC50) (read-out: IRAK4 IC50) was determined as 70 nM.

For `Cn1cc(NC(=O)c2cnn3ccc(N4CCCNCC4)nc23)c(C(F)(F)F)n1` [Example 8, 5-(1,4-diazepan-1-yl)-N-[1-methyl-3-(trifluoromethyl)-1H-pyrazol-4-yl]pyrazolo[1,5-a]pyrimidine-3-carboxamide trifluoroacetate], the concentration for half-maximal inhibition (IC50) (read-out: IRAK4 IC50) was 66 nM.

As for `O=C(Nc1ccccc1C(F)(F)F)c1cnn2ccc(N3CC4CCC3CN4)nc12` (stereo not shown) [Example 115, 5-(2,5-diazabicyclo[2.2.2]oct-2-yl)-N-[2-(trifluoromethyl)phenyl] pyraozlo[1,5-a]pyrimidine-3-carboxamide trifluoroacetate], the concentration for half-maximal inhibition (IC50) (read-out: IRAK4 IC50) came out at 5600 nM.

`N#Cc1ccccc1NC(=O)c1cnn2ccc(N3CCNCC4(CC4)C3)nc12` [Example 267, N-(2-cyanophenyl)-5-(5,8-diazaspiro[2.6]non-5-yl)pyrazolo[1,5-a]pyrimidine-3-carboxamide trifluoroacetate]: where the note is “read-out: IRAK4 IC50”, the IC50 is 351 nM.
